Laboratory results published in patent US12404241B2 (Celgene Corporation, priority 2018, dated 2025).
Where a name gives a salt, the structure may show the parent alone.

Target: T1, AR (Homo sapiens, UniProt P10275)
T1 construct: endogenous in cells; host or cells: VCaP cells
T1 sequence (P10275 1-920): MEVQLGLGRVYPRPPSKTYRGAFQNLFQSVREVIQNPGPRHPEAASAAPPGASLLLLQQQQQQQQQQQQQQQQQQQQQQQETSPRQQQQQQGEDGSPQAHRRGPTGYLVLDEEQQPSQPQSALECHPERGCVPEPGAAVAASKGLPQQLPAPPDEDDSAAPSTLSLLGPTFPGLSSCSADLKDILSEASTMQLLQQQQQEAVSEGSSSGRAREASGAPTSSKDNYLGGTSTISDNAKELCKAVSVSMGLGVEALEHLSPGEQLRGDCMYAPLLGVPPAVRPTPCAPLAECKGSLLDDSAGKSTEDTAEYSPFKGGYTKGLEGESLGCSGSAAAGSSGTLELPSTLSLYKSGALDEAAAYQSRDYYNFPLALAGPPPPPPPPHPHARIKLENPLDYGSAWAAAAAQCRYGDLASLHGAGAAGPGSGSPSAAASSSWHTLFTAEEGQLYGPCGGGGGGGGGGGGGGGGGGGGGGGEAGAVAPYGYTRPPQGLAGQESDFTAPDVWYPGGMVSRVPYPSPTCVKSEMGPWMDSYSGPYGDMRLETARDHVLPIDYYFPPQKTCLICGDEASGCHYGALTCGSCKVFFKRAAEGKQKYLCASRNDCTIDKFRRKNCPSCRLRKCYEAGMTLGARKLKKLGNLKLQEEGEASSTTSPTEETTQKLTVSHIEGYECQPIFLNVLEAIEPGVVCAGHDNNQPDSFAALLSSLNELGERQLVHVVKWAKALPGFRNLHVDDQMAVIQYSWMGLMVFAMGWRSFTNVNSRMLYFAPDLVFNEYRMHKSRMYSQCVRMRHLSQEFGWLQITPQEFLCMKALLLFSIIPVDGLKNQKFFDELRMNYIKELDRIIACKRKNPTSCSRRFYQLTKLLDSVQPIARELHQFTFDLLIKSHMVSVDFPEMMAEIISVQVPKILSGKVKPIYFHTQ
Assay: VCAP AR Degradation Assay
Format: cell-based
Details: for Y (AR degradation efficiency, % of DMSO control): class symbols *; for DC50: class symbols A-C, read-out: DC50
Method in brief: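 24 h, 37 °C, VCaP (DMEM/8% FBS), 10-pt 1:3 dilutions from 5 μM final top, 0.1% DMSO ctrl. Lysis on ice/4 °C 1 h; total AR by sandwich ELISA, normalized to DMSO. 4PL fit → DC50, EC50, Y (min AR level).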

| SMILES | Y (AR degradation efficiency, % of DMSO control) | DC50 [µM] |
| --- | --- | --- |
| CC1(C)C(=O)N(c2ccc(C#N)c(C(F)(F)F)c2)C(=S)N1c1ccc(OCCN2CCN(CC(=O)Nc3cc(C#N)cc(NC4CCC(=O)NC4=O)c3)CC2)c(F)c1 (centres unmarked) [Example 65, 2-(4-(2-(4-(3-(4-cyano-3-(trifluoromethyl)phenyl)-5,5-dimethyl-4-oxo-2-thioxoimidazolidin-1-yl)-2-fluorophenoxy)ethyl)piperazin-1-yl)-N-(3-cyano-5-(2,6-dioxopiperidin-3-ylamino)phenyl)acetamide] | ** (25%<Y<=35%) | 0.1 to 0.5 |
| CCc1cc(N2C(=S)N(c3cnc(C#N)c(C(F)(F)F)c3)C(=O)C2(C)C)ccc1OCCN1CCN(CC(=O)Nc2cc(Cl)cc(NC3CCC(=O)NC3=O)c2)[C@H](C)C1 (stereo partly drawn) [Example 145, N-(3-chloro-5-(2,6-dioxopiperidin-3-ylamino)phenyl)-2-((R)-4-(2-(4-(3-(6-cyano-5-(trifluoromethyl)pyridin-3-yl)-5,5-dimethyl-4-oxo-2-thioxoimidazolidin-1-yl)-2-ethylphenoxy)ethyl)-2-methylpiperazin-1-yl)acetamide] | * (0<Y<=25%) | < 0.1 |
| CCc1cc(N2C(=S)N(c3ccc(C#N)c(C(F)(F)F)c3)C(=O)C2(C)C)ccc1OCCN1C[C@@H](C)N(CC(=O)Nc2cc(C#N)cc(NC3CCC(=O)NC3=O)c2)[C@@H](C)C1 (stereo partly drawn) [Example 186, 2-((2S,6R)-4-(2-(4-(3-(4-cyano-3-(trifluoromethyl)phenyl)-5,5-dimethyl-4-oxo-2-thioxoimidazolidin-1-yl)-2-ethylphenoxy)ethyl)-2,6-dimethylpiperazin-1-yl)-N-(3-cyano-5-(2,6-dioxopiperidin-3-ylamino)phenyl)acetamide] | * (0<Y<=25%) | < 0.1 |
| CCc1cc(N2C(=S)N(c3ccc(C#N)c(C(F)(F)F)c3)C(=O)C2(C)C)ccc1OC[C@H](C)N1C[C@@H](C)N(CC(=O)Nc2cccc(NC3CCC(=O)NC3=O)c2)[C@@H](C)C1 (single isomer, unassigned) [Example 236] | ** (25%<Y<=35%) | 0.1 to 0.5 |
| CC(C)c1cc(N2C(=S)N(c3ccc(C#N)c(C(F)(F)F)c3)C(=O)C2(C)C)ccc1OCCN1C[C@@H](C)N(CC(=O)Nc2cc(Cl)cc(NC3CCC(=O)NC3=O)c2)[C@@H](C)C1 (stereo partly drawn) [Example 208, N-(3-chloro-5-(2,6-dioxopiperidin-3-ylamino)phenyl)-2-((2S,6R)-4-(2-(4-(3-(4-cyano-3-(trifluoromethyl)phenyl)-5,5-dimethyl-4-oxo-2-thioxoimidazolidin-1-yl)-2-isopropylphenoxy)ethyl)-2,6-dimethylpiperazin-1-yl)acetamide] | * (0<Y<=25%) | 0.1 to 0.5 |
| C[C@@H]1CN(CCOc2ccc(N3C(=S)N(c4ccc(C#N)c(C(F)(F)F)c4)C(=O)C3(C)C)cc2Cl)C[C@H](C)N1CC(=O)Nc1cccc(NC2CCC(=O)NC2=O)c1 (stereo partly drawn) [Example 282, 2-((2S,6R)-4-(2-(2-chloro-4-(3-(4-cyano-3-(trifluoromethyl)phenyl)-5,5-dimethyl-4-oxo-2-thioxoimidazolidin-1-yl)phenoxy)ethyl)-2,6-dimethylpiperazin-1-yl)-N-(3-(2,6-dioxopiperidin-3-ylamino)phenyl)acetamide] | * (0<Y<=25%) | < 0.1 |
| CC(C)c1cc(N2C(=S)N(c3cnc(C#N)c(C(F)(F)F)c3)C(=O)C23CCC3)ccc1OCCN1C[C@@H](C)N(CC(=O)Nc2cc(NC3CCC(=O)NC3=O)ccc2F)[C@@H](C)C1 (stereo partly drawn) [Example 209, 2-((2S,6R)-4-(2-(4-(7-(6-cyano-5-(trifluoromethyl)pyridin-3-yl)-8-oxo-6-thioxo-5,7-diazaspiro[3.4]octan-5-yl)-2-isopropylphenoxy)ethyl)-2,6-dimethylpiperazin-1-yl)-N-(5-(2,6-dioxopiperidin-3-ylamino)-2-fluorophenyl)acetamide] | ** (25%<Y<=35%) | 0.1 to 0.5 |
| CC1(C)C(=O)N(c2ccc(C#N)c(C(F)(F)F)c2)C(=S)N1c1ccc(OCCN2CC3CCC(C2)N3CC(=O)Nc2cccc(NC3CCC(=O)NC3=O)c2)c(C2CC2)c1 (centres unmarked) [Example 238, 2-(3-(2-(4-(3-(4-cyano-3-(trifluoromethyl)phenyl)-5,5-dimethyl-4-oxo-2-thioxoimidazolidin-1-yl)-2-cyclopropylphenoxy)ethyl)-3,8-diazabicyclo[3.2.1]octan-8-yl)-N-(3-(2,6-dioxopiperidin-3-ylamino)phenyl)acetamide] | * (0<Y<=25%) | 0.5 to 1 |
| C[C@@H]1CN(CCOc2ccc(N3C(=S)N(c4ccc(C#N)c(C(F)(F)F)c4)C(=O)C3(C)C)cc2C(C)(F)F)C[C@H](C)N1CC(=O)Nc1cccc(NC2CCC(=O)NC2=O)c1 (stereo partly drawn) [Example 252, 2-((2S,6R)-4-(2-(4-(3-(4-cyano-3-(trifluoromethyl)phenyl)-5,5-dimethyl-4-oxo-2-thioxoimidazolidin-1-yl)-2-(1,1-difluoroethyl)phenoxy)ethyl)-2,6-dimethylpiperazin-1-yl)-N-(3-(2,6-dioxopiperidin-3-ylamino)phenyl)acetamide] | * (0<Y<=25%) | < 0.1 |
| CC(F)(F)c1cc(N2C(=S)N(c3cnc(C#N)c(C(F)(F)F)c3)C(=O)C2(C)C)ccc1OCCN1CCN(CC(=O)Nc2cc(NC3CCC(=O)NC3=O)cc(F)c2F)CC1 (centres unmarked) [Example 82, 2-(4-(2-(4-(3-(6-cyano-5-(trifluoromethyl)pyridin-3-yl)-5,5-dimethyl-4-oxo-2-thioxoimidazolidin-1-yl)-2-(1,1-difluoroethyl)phenoxy)ethyl)piperazin-1-yl)-N-(5-(2,6-dioxopiperidin-3-ylamino)-2,3-difluorophenyl)acetamide] | * (0<Y<=25%) | < 0.1 |
| CCc1cc(N2C(=S)N(c3ccc(C#N)c(C(F)(F)F)c3)C(=O)C2(C)C)ccc1OC[C@@H](C)N1C[C@@H](C)N(CC(=O)Nc2cccc(NC3CCC(=O)NC3=O)c2)[C@@H](C)C1 (single isomer, unassigned) [Example 237] | ** (25%<Y<=35%) | 0.1 to 0.5 |
| CCc1cc(N2C(=S)N(c3cnc(C#N)c(C(F)(F)F)c3)C(=O)C2(C)C)ccc1OCCN1CCN([C@@H](C)C(=O)Nc2cc(Cl)cc(NC3CCC(=O)NC3=O)c2)CC1 (single isomer, unassigned) [Example 114] | * (0<Y<=25%) | < 0.1 |
| CC(F)(F)c1cc(N2C(=S)N(c3ccc(C#N)c(C(F)(F)F)c3)C(=O)C2(C)C)ccc1OCCN1CCN(CC(=O)Nc2cccc(NC3CCC(=O)NC3=O)c2)CC1 (centres unmarked) [Example 59, 2-(4-(2-(4-(3-(4-cyano-3-(trifluoromethyl)phenyl)-5,5-dimethyl-4-oxo-2-thioxoimidazolidin-1-yl)-2-(1,1-difluoroethyl)phenoxy)ethyl)piperazin-1-yl)-N-(3-(2,6-dioxopiperidin-3-ylamino)phenyl)acetamide] | * (0<Y<=25%) | < 0.1 |
| CCCc1cc(N2C(=S)N(c3cnc(C#N)c(C(F)(F)F)c3)C(=O)C2(C)C)ccc1OCCN1CCN(CC(=O)Nc2cccc(NC3CCC(=O)NC3=O)c2)CC1 (centres unmarked) [Example 38, hydrochloride] | * (0<Y<=25%) | < 0.1 |
| CC(C)c1cc(N2C(=S)N(c3ccc(C#N)c(C(F)(F)F)c3)C(=O)C2(C)C)cnc1OCCN1C[C@@H](C)N(CC(=O)Nc2cccc(NC3CCC(=O)NC3=O)c2)C[C@H]1C (stereo partly drawn) [Example 230, 2-((2R,5R)-4-(2-(5-(3-(4-cyano-3-(trifluoromethyl)phenyl)-5,5-dimethyl-4-oxo-2-thioxoimidazolidin-1-yl)-3-isopropylpyridin-2-yloxy)ethyl)-2,5-dimethylpiperazin-1-yl)-N-(3-(2,6-dioxopiperidin-3-ylamino)phenyl)acetamide] | *** (35%<Y<50%) | 0.5 to 1 |
| CCc1cc(N2C(=S)N(c3ccc(C#N)c(C(F)(F)F)c3)C(=O)C2(C)C)ccc1OCCN1C[C@@H](C)N(CC(=O)Nc2cccc(N[C@H]3CCC(=O)NC3=O)c2)[C@@H](C)C1 [Example 285, 2-((2R,6S)-4-(2-(4-(3-(4-cyano-3-(trifluoromethyl)phenyl)-5,5-dimethyl-4-oxo-2-thioxoimidazolidin-1-yl)-2-ethylphenoxy)ethyl)-2,6-dimethylpiperazin-1-yl)-N-(3-((S)-2,6-dioxopiperidin-3-ylamino)phenyl)acetamide] | * (0<Y<=25%) | < 0.1 |
